Where a name gives a salt, the structure may show the parent alone. Read-outs that look alike come from different tables or passages of the source.
Tested on: MV4-11
Experiment: Combined use under low protein content, MTT assay after 48 hours
Assay type: cell-based, human
Details: MV4-11, low protein content

N#C[C@H]1[C@H](O)[C@@H](CO)O[C@H]1n1ccc(N)nc1=O [DFP-10917, 4-amino-1-(2-cyano-2-deoxy-β-D-arabinofuranosyl)-2(1H)-pyrimidinone monohydrochloride]
IC50 (Homo sapiens, read-out: IC50 value of DFP-10917 alone): 1530 nM

venetoclax
IC50 (read-out: IC50 value of venetoclax alone): 0.0968 nM

From patent US11957701B2, “Therapy and new therapeutic agent for blood cancer” (Delta-Fly Pharma, Inc., priority 2020, dated 2024)
